Reference: PubChem BioAssay (NCI)
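Protocol summary: plate cells (96-well), add compound at 5 concentrations, incubate 48 h, interpolate endpoints linearly. GI50 is the concentration that inhibits growth by half. TGI denotes the concentration required for complete inhibition of growth.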

Assays:
Test in all cases: NCI tumour cell line growth inhibition, 48 h; in the data active = GI50 below about 0.43 µM; inactive = the rest
UACC-62 melanoma = tested on: UACC-62 melanoma
MDA-MB-435 = tested on: MDA-MB-435
SF-268 CNS = tested on: SF-268 CNS
HOP-92 NSCLC = tested on: HOP-92 NSCLC
SNB-19 CNS = tested on: SNB-19 CNS
NCI-H460 lung = tested on: NCI-H460 lung
IGROV1 ovarian = tested on: IGROV1 ovarian
DU-145 prostate = tested on: DU-145 prostate
T-47D breast = tested on: T-47D breast
HCT-116 colon = tested on: HCT-116 colon
HS 578T breast = tested on: HS 578T breast
SF-539 CNS = tested on: SF-539 CNS
UACC-257 melanoma = tested on: UACC-257 melanoma
COLO 205 colon = tested on: COLO 205 colon
SW-620 colon = tested on: SW-620 colon
A498 renal = tested on: A498 renal
SNB-75 CNS = tested on: SNB-75 CNS
TK-10 renal = tested on: TK-10 renal
RXF 393 renal = tested on: RXF 393 renal
SK-MEL-28 melanoma = tested on: SK-MEL-28 melanoma
A549 NSCLC = tested on: A549 NSCLC
RPMI-8226 leukemia = tested on: RPMI-8226 leukemia
OVCAR-5 ovarian = tested on: OVCAR-5 ovarian
HCT-15 colon = tested on: HCT-15 colon
U251 CNS = tested on: U251 CNS
LOX IMVI melanoma = tested on: LOX IMVI melanoma
K-562 leukemia = tested on: K-562 leukemia
NCI-H23 lung = tested on: NCI-H23 lung
MCF7 breast = tested on: MCF7 breast
OVCAR-3 ovarian = tested on: OVCAR-3 ovarian
NCI-H226 lung = tested on: NCI-H226 lung
HL-60(TB) leukemia = tested on: HL-60(TB) leukemia
OVCAR-4 ovarian = tested on: OVCAR-4 ovarian
MOLT-4 leukemia = tested on: MOLT-4 leukemia
HT29 colon = tested on: HT29 colon
SR leukemia = tested on: SR leukemia
HOP-62 NSCLC = tested on: HOP-62 NSCLC
SK-MEL-5 melanoma = tested on: SK-MEL-5 melanoma
CAKI-1 renal = tested on: CAKI-1 renal
MALME-3M melanoma = tested on: MALME-3M melanoma
CCRF-CEM leukemia = tested on: CCRF-CEM leukemia
SF-295 CNS = tested on: SF-295 CNS
SK-MEL-2 melanoma = tested on: SK-MEL-2 melanoma
UO-31 renal = tested on: UO-31 renal
MDA-MB-231 breast = tested on: MDA-MB-231 breast
786-0 renal = tested on: 786-0 renal
NCI/ADR-RES ovarian = tested on: NCI/ADR-RES ovarian
SK-OV-3 ovarian = tested on: SK-OV-3 ovarian
PC-3 prostate = tested on: PC-3 prostate
OVCAR-8 ovarian = tested on: OVCAR-8 ovarian
SN12C renal = tested on: SN12C renal
KM12 colon = tested on: KM12 colon
M14 melanoma = tested on: M14 melanoma
NCI-H522 lung = tested on: NCI-H522 lung
BT-549 breast = tested on: BT-549 breast
HCC-2998 colon = tested on: HCC-2998 colon
ACHN renal = tested on: ACHN renal
EKVX NSCLC = tested on: EKVX NSCLC

CC1(C)N=C(N)N=C(N)N1c1ccc(CCC(=O)Nc2ccc(S(=O)(=O)F)cc2)cc1
> 94.1 µM: TGI (SF-539 CNS)
> 100 µM: TGI (UACC-62 melanoma) | TGI (MDA-MB-435) | TGI (SF-268 CNS) | TGI (HOP-92 NSCLC) | TGI (SNB-19 CNS) | TGI (NCI-H460 lung) | TGI (IGROV1 ovarian) | TGI (DU-145 prostate) | TGI (T-47D breast) | TGI (HCT-116 colon) | TGI (HS 578T breast) | TGI (UACC-257 melanoma) | TGI (COLO 205 colon) | TGI (SW-620 colon) | TGI (A498 renal) | TGI (SNB-75 CNS) | TGI (TK-10 renal) | TGI (RXF 393 renal) | TGI (SK-MEL-28 melanoma) | TGI (A549 NSCLC) | TGI (RPMI-8226 leukemia) | TGI (OVCAR-5 ovarian) | TGI (HCT-15 colon) | TGI (U251 CNS) | TGI (LOX IMVI melanoma) | TGI (K-562 leukemia) | TGI (NCI-H23 lung) | TGI (MCF7 breast) | TGI (OVCAR-3 ovarian) | TGI (NCI-H226 lung) | TGI (HL-60(TB) leukemia) | TGI (OVCAR-4 ovarian) | TGI (MOLT-4 leukemia) | TGI (HT29 colon) | TGI (SR leukemia) | TGI (HOP-62 NSCLC) | TGI (CAKI-1 renal) | TGI (MALME-3M melanoma) | TGI (CCRF-CEM leukemia) | TGI (SF-295 CNS) | TGI (SK-MEL-2 melanoma) | TGI (UO-31 renal) | TGI (MDA-MB-231 breast) | TGI (786-0 renal) | TGI (NCI/ADR-RES ovarian) | TGI (SK-OV-3 ovarian) | TGI (OVCAR-8 ovarian) | TGI (SN12C renal) | TGI (KM12 colon) | TGI (M14 melanoma) | TGI (NCI-H522 lung) | TGI (BT-549 breast) | TGI (HCC-2998 colon) | TGI (ACHN renal)
57 µM: TGI (SK-MEL-5 melanoma)
active: GI50 (UACC-62 melanoma) 0.388 µM | GI50 (NCI-H460 lung) 0.253 µM | GI50 (IGROV1 ovarian) 0.0723 µM | GI50 (HCT-116 colon) 0.425 µM | GI50 (SW-620 colon) 0.371 µM | GI50 (RXF 393 renal) 0.307 µM | GI50 (HT29 colon) 0.362 µM | GI50 (SR leukemia) 0.209 µM | GI50 (PC-3 prostate) 0.0593 µM
> 72.1 µM: TGI (PC-3 prostate)
inactive: GI50 (MDA-MB-435) 0.461 µM | GI50 (SF-268 CNS) 1.31 µM | GI50 (HOP-92 NSCLC) 5.31 µM | GI50 (SNB-19 CNS) 7.16 µM | GI50 (DU-145 prostate) 0.871 µM | GI50 (T-47D breast) 16.2 µM | GI50 (HS 578T breast) > 75.8 µM | GI50 (SF-539 CNS) 2.94 µM | GI50 (UACC-257 melanoma) 15.5 µM | GI50 (COLO 205 colon) 0.922 µM | GI50 (A498 renal) 5.99 µM | GI50 (SNB-75 CNS) 2.42 µM | GI50 (TK-10 renal) 1.72 µM | GI50 (SK-MEL-28 melanoma) 8.22 µM | GI50 (A549 NSCLC) 2.87 µM | GI50 (RPMI-8226 leukemia) 1.22 µM | GI50 (OVCAR-5 ovarian) 0.599 µM | GI50 (HCT-15 colon) 3.48 µM | GI50 (U251 CNS) 2.01 µM | GI50 (LOX IMVI melanoma) 1.66 µM | GI50 (K-562 leukemia) 0.533 µM | GI50 (NCI-H23 lung) 2.19 µM | GI50 (MCF7 breast) 1.8 µM | GI50 (OVCAR-3 ovarian) 8.03 µM | GI50 (NCI-H226 lung) 7.35 µM | GI50 (HL-60(TB) leukemia) 0.854 µM | GI50 (OVCAR-4 ovarian) > 78.5 µM | GI50 (MOLT-4 leukemia) 4.62 µM | GI50 (HOP-62 NSCLC) 8.62 µM | GI50 (SK-MEL-5 melanoma) 0.774 µM | GI50 (CAKI-1 renal) 2.33 µM | GI50 (MALME-3M melanoma) 10.9 µM | GI50 (CCRF-CEM leukemia) 0.73 µM | GI50 (SF-295 CNS) 4.49 µM | GI50 (SK-MEL-2 melanoma) 26.4 µM | GI50 (UO-31 renal) 34.1 µM | GI50 (MDA-MB-231 breast) 23.1 µM | GI50 (786-0 renal) 0.529 µM | GI50 (NCI/ADR-RES ovarian) 98.3 µM | GI50 (SK-OV-3 ovarian) > 70.2 µM | GI50 (OVCAR-8 ovarian) 5.08 µM | GI50 (SN12C renal) 1.59 µM | GI50 (KM12 colon) 0.64 µM | GI50 (M14 melanoma) 0.936 µM | GI50 (NCI-H522 lung) 1.26 µM | GI50 (BT-549 breast) 12.6 µM | GI50 (HCC-2998 colon) 3.85 µM | GI50 (ACHN renal) 7.34 µM

Cn1c2ccccc2n2c3ncccc3c(=O)c(C#N)c12
97.4 µM: TGI (SK-MEL-2 melanoma)
> 62.5 µM: TGI (SNB-19 CNS)
48.4 µM: TGI (SF-295 CNS)
> 94.1 µM: TGI (HS 578T breast)
57.1 µM: TGI (MDA-MB-231 breast)
43.1 µM: TGI (UO-31 renal)
> 100 µM: TGI (MDA-MB-435) | TGI (SF-268 CNS) | TGI (HOP-92 NSCLC) | TGI (IGROV1 ovarian) | TGI (T-47D breast) | TGI (UACC-257 melanoma) | TGI (SW-620 colon) | TGI (TK-10 renal) | TGI (SK-MEL-28 melanoma) | TGI (RPMI-8226 leukemia) | TGI (OVCAR-5 ovarian) | TGI (K-562 leukemia) | TGI (OVCAR-3 ovarian) | TGI (HL-60(TB) leukemia) | TGI (OVCAR-4 ovarian) | TGI (MOLT-4 leukemia) | TGI (HT29 colon) | TGI (SR leukemia) | TGI (MALME-3M melanoma) | TGI (CCRF-CEM leukemia) | TGI (EKVX NSCLC) | TGI (NCI/ADR-RES ovarian) | TGI (PC-3 prostate) | TGI (SN12C renal) | TGI (KM12 colon) | TGI (M14 melanoma) | TGI (HCC-2998 colon)
24.7 µM: TGI (DU-145 prostate)
> 56.4 µM: TGI (RXF 393 renal)
23.5 µM: TGI (OVCAR-8 ovarian)
23.1 µM: TGI (LOX IMVI melanoma)
21.5 µM: TGI (SK-MEL-5 melanoma)
98.1 µM: TGI (SK-OV-3 ovarian)
> 59 µM: TGI (HCT-116 colon)
57.3 µM: TGI (BT-549 breast)
> 77.3 µM: TGI (CAKI-1 renal)
29.5 µM: TGI (HOP-62 NSCLC)
28.4 µM: TGI (UACC-62 melanoma)
21.1 µM: TGI (MCF7 breast)
> 40.7 µM: TGI (NCI-H460 lung)
34 µM: TGI (A498 renal) | TGI (U251 CNS)
35.4 µM: TGI (NCI-H522 lung)
> 36.7 µM: TGI (A549 NSCLC)
11.7 µM: TGI (ACHN renal)
4.65 µM: TGI (NCI-H226 lung)
36.6 µM: TGI (NCI-H23 lung)
> 53.8 µM: TGI (HCT-15 colon)
> 81 µM: TGI (786-0 renal)
> 79.9 µM: TGI (SNB-75 CNS)

COC1OC(C)C(NC(=O)OCC(Cl)(Cl)Cl)C2OC(C)(C)OC12 (stereo not given)
> 100 µM: TGI (UACC-62 melanoma) | TGI (MDA-MB-435) | TGI (SF-268 CNS) | TGI (HOP-92 NSCLC) | TGI (SNB-19 CNS) | TGI (NCI-H460 lung) | TGI (IGROV1 ovarian) | TGI (DU-145 prostate) | TGI (T-47D breast) | TGI (HCT-116 colon) | TGI (HS 578T breast) | TGI (SF-539 CNS) | TGI (UACC-257 melanoma) | TGI (COLO 205 colon) | TGI (SW-620 colon) | TGI (A498 renal) | TGI (TK-10 renal) | TGI (RXF 393 renal) | TGI (SK-MEL-28 melanoma) | TGI (A549 NSCLC) | TGI (RPMI-8226 leukemia) | TGI (OVCAR-5 ovarian) | TGI (HCT-15 colon) | TGI (U251 CNS) | TGI (K-562 leukemia) | TGI (NCI-H23 lung) | TGI (MCF7 breast) | TGI (OVCAR-3 ovarian) | TGI (NCI-H226 lung) | TGI (HL-60(TB) leukemia) | TGI (OVCAR-4 ovarian) | TGI (MOLT-4 leukemia) | TGI (HT29 colon) | TGI (SR leukemia) | TGI (HOP-62 NSCLC) | TGI (SK-MEL-5 melanoma) | TGI (CAKI-1 renal) | TGI (MALME-3M melanoma) | TGI (CCRF-CEM leukemia) | TGI (SF-295 CNS) | TGI (EKVX NSCLC) | TGI (UO-31 renal) | TGI (MDA-MB-231 breast) | TGI (786-0 renal) | TGI (NCI/ADR-RES ovarian) | TGI (SK-OV-3 ovarian) | TGI (PC-3 prostate) | TGI (OVCAR-8 ovarian) | TGI (SN12C renal) | TGI (KM12 colon) | TGI (M14 melanoma) | TGI (NCI-H522 lung) | TGI (BT-549 breast) | TGI (HCC-2998 colon) | TGI (ACHN renal)
